Values quoted from earlier work in paper PMC10544575, “Inhibitory mechanism of vortioxetine on CYP450 enzymes in human and rat liver microsomes” (Frontiers in Pharmacology, 2023).

Legend:
Details in all cases: in vitro; ref Wójcikowski et al., 2020; cited from earlier work
CYP3A4 = CYP3A4 (Homo sapiens, UniProt P08684); parameters: 0.20 mg/mL HLMs or 0.20 mg/mL RLMs; from tissue; host or cells: human liver microsomes; method as in Wójcikowski et al., 2020
CYP2D6 = CYP2D6 (Homo sapiens, UniProt P10635); parameters: 0.20 mg/mL HLMs or 0.20 mg/mL RLMs; from tissue; host or cells: human liver microsomes; method as in Wójcikowski et al., 2020
Sequence of CYP2D6 (P10635 whole entry): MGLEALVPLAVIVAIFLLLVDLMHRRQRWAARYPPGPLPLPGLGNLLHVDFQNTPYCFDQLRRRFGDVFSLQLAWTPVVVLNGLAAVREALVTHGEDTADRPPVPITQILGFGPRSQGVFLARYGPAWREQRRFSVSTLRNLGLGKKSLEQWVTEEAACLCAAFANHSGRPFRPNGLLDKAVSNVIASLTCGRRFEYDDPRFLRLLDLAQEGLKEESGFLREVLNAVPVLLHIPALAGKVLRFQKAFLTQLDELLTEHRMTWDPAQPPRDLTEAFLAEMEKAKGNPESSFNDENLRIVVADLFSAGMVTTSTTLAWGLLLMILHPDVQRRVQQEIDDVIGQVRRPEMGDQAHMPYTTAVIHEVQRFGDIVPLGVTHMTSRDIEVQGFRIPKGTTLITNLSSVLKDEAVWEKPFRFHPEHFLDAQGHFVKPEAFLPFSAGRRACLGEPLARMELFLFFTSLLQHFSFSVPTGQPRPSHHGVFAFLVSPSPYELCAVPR

CYP1A2 = tested on: CYP1A2; parameters: method as in Wójcikowski et al., 2020

Sequence of CYP3A4 (P08684 whole entry): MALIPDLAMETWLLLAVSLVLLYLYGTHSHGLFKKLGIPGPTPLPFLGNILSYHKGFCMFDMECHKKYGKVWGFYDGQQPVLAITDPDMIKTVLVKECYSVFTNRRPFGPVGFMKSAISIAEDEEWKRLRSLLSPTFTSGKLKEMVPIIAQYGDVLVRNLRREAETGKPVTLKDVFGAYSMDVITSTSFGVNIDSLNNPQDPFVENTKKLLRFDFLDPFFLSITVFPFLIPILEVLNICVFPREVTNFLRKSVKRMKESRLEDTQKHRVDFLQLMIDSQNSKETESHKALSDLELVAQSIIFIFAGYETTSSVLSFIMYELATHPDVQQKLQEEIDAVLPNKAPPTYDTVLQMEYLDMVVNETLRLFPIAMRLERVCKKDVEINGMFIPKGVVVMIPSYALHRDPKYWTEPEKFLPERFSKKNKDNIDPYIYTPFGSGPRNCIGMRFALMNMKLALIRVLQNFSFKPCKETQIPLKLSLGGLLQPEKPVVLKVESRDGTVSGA

CN1CC2c3ccccc3Oc3ccc(Cl)cc3C2C1 (stereo not drawn) [asenapine]
significantly inhibited: inhibition of CYP3A4 (CYP3A4) | inhibition of CYP2D6 (CYP2D6) | inhibition of CYP1A2 (CYP1A2)
